One block for each compound: values may come before it.
Legend:
[1] = test system: microsomal prostaglandin E2 synthase (mPGES)-1; parameters: method as in doi:10.1016/j.phanu.2014.05.001; settings: cited from earlier work
5-LOX product formation = 5-LOX product formation in activated human M1 macrophages (metabololipidomics); settings: Macrophage, cell-based, Staphylococcus aureus-conditioned medium 1.0%, 3 h, 15 min preincubation, read-out: IC50 for inhibition of 5-LOX product formation
Excerpt: (§1) Leukocyte reduction system chamber (LRSC) filters were provided by the Central Institute for Blood Transfusion and Immunological Department of Tirol Kliniken GmbH (Austria) with the informed consent of the volunteers. Only healthy blood donors between 18 and 65 years of age without medication for chronic diseases, fever, or deficiency symptoms and after physical examinations by trained medical personnel were included in the study. Human peripheral blood mononuclear cells (PBMC) were freshly isolated from LRSC filters. After dilution of the cell concentrates in PBS pH 7.4 containing 12.5 mM citrate and 14 mM glucose (130 mL, 37 °C), immune cells were separated via isopycnic density gradient centrifugation (400× g, 20 min, RT) using Histopaque®-1077 (Sigma-Alrich, St. Louis, MO, USA). PBMC were obtained from the interphase after hypotonic lysis of erythrocytes using water (2–5 mL) and two consecutive washing steps with PBS pH 7.4 (50 mL) (270× g, 5 min, RT). […]
(§2) Lipid mediator biosynthesis in human M1/M2 macrophages (1.5 mL PBS pH 7.4 plus 1 mM CaCl2) was stimulated with Staphylococcus aureus (LS1)-conditioned medium (1.0%, 3 h) after 15 min preincubation with DMSO (0.1%) or test compounds and stopped by addition of ice-cold MeOH (2.5 mL) containing deuterium-labeled internal standards (200 pg d8-5S-hydroxyeicosatetraenoic acid (HETE), d4-leukotriene (LT)B4, d5-lipoxin (LX)A4, d5-resolvin (Rv)D2, d4-prostaglandin (PG)E2, and 2000 pg d8-arachidonic acid (Cayman Chemical, Ann Arbor, MI, USA)). […] The gradient of mobile phase A (water/MeOH, 90/10, 0.01% acetic acid) and mobile phase B (MeOH, 0.01% acetic acid) was ramped at a flow rate of 0.35 mL/min from 35.6% to 84.4% B within 12.5 min followed by 5 min of isocratic elution at 97.8% B. Lipid mediators and fatty acids were analyzed in the negative ion mode by scheduled multiple reaction monitoring (detection window: 120 s) using a QTRAP 6500^+ Mass Spectrometer (Sciex), which was equipped with an electrospray ionization source. […]

human recombinant 5-LOX = molecular target: T1, human recombinant 5-LOX (Homo sapiens, UniProt P09917); assay: cell-free 5-lipoxygenase activity assay; assay type: biochemical; settings: arachidonic acid 20 µM, 10 min at 37 °C, read-out: IC50 for inhibition of human recombinant 5-LOX
T1 construct: purchased Cayman Chemical
T1 sequence (P09917 1-674): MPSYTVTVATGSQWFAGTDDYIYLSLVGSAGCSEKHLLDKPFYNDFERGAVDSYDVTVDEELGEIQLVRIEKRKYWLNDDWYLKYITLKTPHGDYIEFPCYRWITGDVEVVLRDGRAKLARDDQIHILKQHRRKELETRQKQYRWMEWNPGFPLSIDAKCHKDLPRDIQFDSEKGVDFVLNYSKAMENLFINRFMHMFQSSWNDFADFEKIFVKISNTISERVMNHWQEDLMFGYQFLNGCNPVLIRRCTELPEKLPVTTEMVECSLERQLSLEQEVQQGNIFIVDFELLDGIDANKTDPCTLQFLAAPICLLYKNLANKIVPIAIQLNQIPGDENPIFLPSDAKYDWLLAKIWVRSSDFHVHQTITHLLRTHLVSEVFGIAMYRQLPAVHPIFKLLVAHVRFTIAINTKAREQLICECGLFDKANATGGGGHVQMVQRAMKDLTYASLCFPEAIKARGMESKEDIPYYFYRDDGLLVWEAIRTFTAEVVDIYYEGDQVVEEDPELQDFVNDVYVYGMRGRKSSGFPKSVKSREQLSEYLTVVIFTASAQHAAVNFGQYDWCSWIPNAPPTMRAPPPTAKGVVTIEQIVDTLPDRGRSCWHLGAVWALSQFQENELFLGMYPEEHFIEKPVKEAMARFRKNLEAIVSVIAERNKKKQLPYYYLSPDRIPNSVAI
Experimental: Human recombinant 5-LOX (Cayman Chemical, 10 U) was pre-treated with vehicle (DMSO, 0.1%) or test compounds for 10 min in 1 mL PBS pH 7.4, 1 mM EDTA and 1 mM ATP on ice before CaCl2 (2 mM) and arachidonic acid (20 µM) were added. After 10 min at 37 °C, the reaction was stopped by the addition of ice-cold MeOH (1 mL) and PGB1 (2 ng) as internal standard. Clean-Up C-18 Endcapped SPE cartridges (100 mg, 10 mL, UCT, Bristol, PA, USA) were conditioned with MeOH (1 mL, twice) and equilibrated with water (1 mL). After acidification (530 µL PBS plus 60 mM HCl) and centrifugation (750× g, 10 min, 4 °C), supernatants containing lipid mediators were loaded onto the columns, which were first washed with water (1 mL) and then MeOH/water (25:75, 1 mL). After elution of lipid mediators with MeOH (300 µL), water (120 µL) was added and samples were centrifuged (21,100× g, 10 min, 4 °C) and subjected to LC-PDA analysis. 5-LOX products, including all trans-isomers of LTB4 and 5-HETE, were separated at 40 °C and a flow rate of 0.45 mL/min on a Kinetex C-18 LC column (100Å, 1.3 μm, 2.1 × 50 mm, Phenomenex, Torrance, CA) using a Nexera X2 UHPLC system (Shimadzu, Kyoto, Japan). The step gradient of mobile phase A (water/MeOH, 50/50, 0.05% trifluoroacetic acid) and mobile phase B (MeOH, 0.05% trifluoroacetic acid) was kept at 14% B for 2 min, followed by 46% B for 2 min and 90% B for another 2 min. LTB4 isomers and 5-HETE were detected with a photodiode array detector (SPD-M20A, Shimadzu, Kioto, Japan) at 280 nm and 235 nm, respectively. Lipid quantitieswere calculated by internal calibration using PGB1 as reference standard.
Data are expressed as mean ± s.e.m. and single data from n = 4–8 independent experiments. […] Data were analyzed using Microsoft Excel (Office 365, Version: 2204, Albuquerque, New Mexico), and statistics were performed using GraphPad Prism (GraphPad Software version 9.3.1, Dotmatics, Boston, UK). IC50 values were calculated by non-linear regression (GraphPad Prism 9.3.1).

human M2 macrophages = assay: lipid mediator profile (SPMs, precursors, free PUFAs) in activated human M2 macrophages; assay type: cell-based
Excerpt: Leukocyte reduction system chamber (LRSC) filters were provided by the Central Institute for Blood Transfusion and Immunological Department of Tirol Kliniken GmbH (Austria) with the informed consent of the volunteers. Only healthy blood donors between 18 and 65 years of age without medication for chronic diseases, fever, or deficiency symptoms and after physical examinations by trained medical personnel were included in the study. Human peripheral blood mononuclear cells (PBMC) were freshly isolated from LRSC filters. After dilution of the cell concentrates in PBS pH 7.4 containing 12.5 mM citrate and 14 mM glucose (130 mL, 37 °C), immune cells were separated via isopycnic density gradient centrifugation (400× g, 20 min, RT) using Histopaque®-1077 (Sigma-Alrich, St. Louis, MO, USA). PBMC were obtained from the interphase after hypotonic lysis of erythrocytes using water (2–5 mL) and two consecutive washing steps with PBS pH 7.4 (50 mL) (270× g, 5 min, RT).
To differentiate monocytes, which are the predominant cell type in PBMC, towards M0 macrophages, they were first stimulated with 20 ng/mL GM-CSF or M-CSF (HiSS Diagnostics GmbH, Freiburg, Germany) for 6 days in macrophage medium (RPMI 1640 supplemented with 10% FCS, 2 mmol/L L-glutamine, 100 U/mL penicillin and 100 μg/mL streptomycin). These monocyte-derived macrophages were polarized for another 48 h in macrophage medium with 100 ng/mL lipopolysaccharide and 20 ng/mL interferon-γ (Peprotech, Hamburg, Germany) to obtain M1 or with 20 ng/mL interleukin-4 (Peprotech, Hamburg, Germany) to obtain M2 phenotypes.
Lipid mediator biosynthesis in human M1/M2 macrophages (1.5 mL PBS pH 7.4 plus 1 mM CaCl2) was stimulated with Staphylococcus aureus (LS1)-conditioned medium (1.0%, 3 h) after 15 min preincubation with DMSO (0.1%) or test compounds and stopped by addition of ice-cold MeOH (2.5 mL) containing deuterium-labeled internal standards (200 pg d8-5S-hydroxyeicosatetraenoic acid (HETE), d4-leukotriene (LT)B4, d5-lipoxin (LX)A4, d5-resolvin (Rv)D2, d4-prostaglandin (PG)E2, and 2000 pg d8-arachidonic acid (Cayman Chemical, Ann Arbor, MI, USA)). Samples were incubated at −20 °C for at least 1 h to precipitate proteins and then centrifuged (750× g, 10 min, 4 °C). The supernatant was mixed with acidified water (7 mL, pH 3.5) and loaded onto solid phase cartridges (Sep-Pak® Vac 6cc 500 mg/6 mL C-18 (Waters, Milford, MA, USA)), which were conditioned with MeOH (6 mL) and equilibrated with water (2 mL). Columns were washed with water (6 mL) and hexane (6 mL, 4 °C) before lipid mediators were eluted with methyl formiate (6 mL). The organic phase was evaporated to dryness using a TurboVap LV (Biotage, Uppsala, Sweden) and the remaining lipids were dissolved in MeOH/water (1:1), centrifuged twice (21,100× g, 4 °C, 5 min), and subjected to UPLC-MS/MS analysis. Chromatographic separation of lipid mediators was carried out at 55°C on an Acquity UPLC BEH C-18 column (130Å, 1.7 μm, 2.1 × 100 mm, Waters) using an ExionLC AD UHPLC system (Sciex, Framingham, MA, USA). The gradient of mobile phase A (water/MeOH, 90/10, 0.01% acetic acid) and mobile phase B (MeOH, 0.01% acetic acid) was ramped at a flow rate of 0.35 mL/min from 35.6% to 84.4% B within 12.5 min followed by 5 min of isocratic elution at 97.8% B. Lipid mediators and fatty acids were analyzed in the negative ion mode by scheduled multiple reaction monitoring (detection window: 120 s) using a QTRAP 6500^+ Mass Spectrometer (Sciex), which was equipped with an electrospray ionization source. The curtain gas was set to 40 psi, the collision gas to medium, the ion spray voltage to −4000 V, the heated capillary temperature to 500 °C, and the sheath and auxiliary gas pressure to 40 psi. Transitions selected for quantitation and the corresponding declustering potential (DP), entrance potential (EP), collision energy (CE) and collision cell exit potential (CXP) are listed in Table 4. […]

COX product formation = COX product formation in activated human M1 macrophages (metabololipidomics); assay type: cell-based
Excerpt: as §1, §2

[2] = test system: soluble epoxide hydrolase (sEH); assay: cellular sEH activity (DHETs/EETs ratio) in human M2 macrophages; assay type: cell-based
Excerpt: (§3) Leukocyte reduction system chamber (LRSC) filters were provided by the Central Institute for Blood Transfusion and Immunological Department of Tirol Kliniken GmbH (Austria) with the informed consent of the volunteers. Only healthy blood donors between 18 and 65 years of age without medication for chronic diseases, fever, or deficiency symptoms and after physical examinations by trained medical personnel were included in the study. Human peripheral blood mononuclear cells (PBMC) were freshly isolated from LRSC filters. […]
(§4) Lipid mediator biosynthesis in human M1/M2 macrophages (1.5 mL PBS pH 7.4 plus 1 mM CaCl2) was stimulated with Staphylococcus aureus (LS1)-conditioned medium (1.0%, 3 h) after 15 min preincubation with DMSO (0.1%) or test compounds and stopped by addition of ice-cold MeOH (2.5 mL) containing deuterium-labeled internal standards (200 pg d8-5S-hydroxyeicosatetraenoic acid (HETE), d4-leukotriene (LT)B4, d5-lipoxin (LX)A4, d5-resolvin (Rv)D2, d4-prostaglandin (PG)E2, and 2000 pg d8-arachidonic acid (Cayman Chemical, Ann Arbor, MI, USA)). […] Transitions selected for quantitation and the corresponding declustering potential (DP), entrance potential (EP), collision energy (CE) and collision cell exit potential (CXP) are listed in Table 4. […]

12/15-LOX product levels = assay: 12- and 15-LOX product levels in activated macrophages; assay type: cell-based, human
Excerpt: as §3, §4

[3] = test system: 5-lipoxygenase (5-LOX) pathway; parameters: method as in PMID 28165233; settings: cited from earlier work
cell apoptosis = test system: cell apoptosis; parameters: method as in PMID 18840408, PMID 18262737; settings: cited from earlier work

Structure (SMILES): COc1cc(-c2cc(=O)c3c(O)c(C/C=C(\C)CCC=C(C)C)c(O)cc3o2)ccc1O [Compound 7a, cannflavin A]
- inhibition of mPGES-1 [1]: potent inhibitors

- IC50 (5-LOX product formation): 3.8 µM
- IC50 (human recombinant 5-LOX): 6.9 µM
Structure (SMILES): COc1cc(O)c2c(c1)CCc1cc(OC)c(OC)c(O)c1-2 [Compound 9, 9,10-dihydro-2,3,7-trimethoxy-4,5-phenanthrenediol]
- D-series Rv (RvDs) levels (human M2 macrophages): raised
- formation of SPM precursors, including 17-HDHA, 15-HEPE and 15-HETE (human M2 macrophages): enhanced formation
- maresin 2 (MaR2) levels (human M2 macrophages): raised
- production of specialized pro-resolving mediators (SPMs) (human M2 macrophages): stimulated
- protectins (PDs) levels (human M2 macrophages): raised
- effect on COX product formation (COX product formation): substantially elevated

Structure (SMILES): COc1cc(-c2cc(=O)c3c(O)c(CC=C(C)C)c(O)cc3o2)ccc1O [Compound 8, cannflavin B]
- inhibition of mPGES-1 [1]: potent inhibitors

- IC50 (5-LOX product formation): 8.5 µM
- IC50 (human recombinant 5-LOX): 4.6 µM
- ratio of DHETs/EETs (indicator of sEH activity) [2]: only increased by trend
Structure (SMILES): COc1cc2c(c(OC)c1O)-c1c(ccc(OC)c1O)CC2 [Compound 10, 9,10-dihydro-2,4,6-trimethoxy-3,5-phenanthrenediol]
- maresin 2 (MaR2) levels (human M2 macrophages): selectively increased
- production of specialized pro-resolving mediators (SPMs) (human M2 macrophages): stimulated
- effect on COX product formation (COX product formation): substantially elevated

- IC50 (5-LOX product formation): 1 µM
- IC50 (human recombinant 5-LOX): 20.1 µM
- ratio of DHETs/EETs (indicator of sEH activity) [2]: significantly elevated
- IC50 (COX product formation; Macrophage, cell-based, Staphylococcus aureus-conditioned medium, read-out: IC50 for inhibition of COX product (prostanoid) formation): 2 µM
Structure (SMILES): COC1=CC(=O)C2=C(C1=O)c1c(cc(OC)cc1OC)CC2 [Compound 5, 9,10-dihydro-3,5,7-trimethoxy-1,4-phenanthrenequinone]
- 12/15-LOX product levels (12/15-LOX product levels): slightly but significantly lowered
- D-series Rv (RvDs) levels (human M2 macrophages): but not RvDs levels
- maresin 2 (MaR2) levels (human M2 macrophages): elevated
- protectins (PDs) levels (human M2 macrophages): elevated
- release of polyunsaturated fatty acids (PUFAs) (human M2 macrophages): decreased

Structure (SMILES): COc1cc(O)cc(CCc2ccc(OC)c(O)c2CC=C(C)C)c1 [Compound 6, canniprene]
- production of inflammatory eicosanoids via the 5-LOX pathway [3]: potently inhibits

Structure (SMILES): COC1=CC(=O)c2ccc3cc(OC)cc(O)c3c2C1=O [Compound 4, denbinobin]
- cell apoptosis induction (cell apoptosis): cell apoptosis-inducing properties

— article PMC9414986, “Phytochemical Characterization of Cannabis sativa L. Chemotype V Reveals Three New Dihydrophenanthrenoids That Favorably Reprogram Lipid Mediator Biosynthesis in Macrophages” (Plants, 2022)
